We go through one compound from patent US20150023904A1, “NEW APPLICATION OF PVP-I” (priority 2013, published 2015).

This series relates to patients suffering premature ejaculation. Kind of series: IELT before and after treatment in patients suffering premature ejaculation (Groups a, b, c). The series is classed as in vivo, human. From the text:
31 patients (27±5 years old) suffering premature ejaculation for 0.5 to 2 years who have abandoned other therapies for at least 1 month before participating in this experiment. With normal sexual desire, and without drug abuse experience, suspected drug use, or contact with radioactive materials, all these patients are composed of 10 with circumcision, 1 with renal insufficiency, 2 with unsatisfactory sexual life after marriage, and 1 with weak erection.
Taking intravaginal ejaculatin latency time (IELT) as the experimental parameter, if the time after insertion into the vagina is less than 1 minute, deem it as 1 minute. Take IELT for 3 times before and after the treatment, then calculate the mean value.
The experiment was performed by observation of three groups: a, b and c, wherein,
IELT shall be calculated after 1 month of drug taking respectively.
All the data were analyzed statistically with statistical software SPSS 18.0, and for single variables, t was inspected by taking the inspection standard α=0.05, with the inspection results as below: codes a, b and c represent different groups, the data following denote treatment time, 1 signifies IELT before treatment, 2 represents IELT after treatment and N as the number of patients.

Take `CN[C@H]1CC[C@@H](c2ccc(Cl)c(Cl)c2)c2ccccc21` [sertraline]: the “number of patients with prolonged IELT after treatment” value (Group a N=4, Group b N=13, Group c N=14, from scatter plots FIG. 2-4) is listed as 4. Further, the “IELT after treatment, mean value” (after treatment, IELT taken 3 times and averaged, calculated after 1 month of drug taking, IELT less than 1 minute deemed 1 minute) was 3.75 min. Also, under “before treatment (baseline of the same group), IELT taken 3 times and averaged”, the “IELT before treatment, mean value” is 1.25 min. Further, where the note is “lethargy, dysphoria, bruxism and nausea, disappeared 2 to 3 days after drug withdrawal”, the “patients with side effects or adverse reaction” value stood at 5.
